Key:
Conditions in all cases: 37° C., 48 hours (examined up to 72 hours); well color change to purple or red
S. mitis (CX-8) = assay: Substance utilization by isolated strains (BioLOG GP2, API 50); format: cell-based, Streptococcus mitis
Procedure: (§1) To analyze substance utilization by the isolated strains (Streptococcus pneumoniae, Streptococcus infantis, and Streptococcus mitis), tests were conducted in the following manner. BioLOG GP2 and API 50 were used in determining the substance utilization, and testing was performed using testing methods provided by Omnilog and Biomeriuse. The culturing temperature and media suitable to corresponding strains were selected, and 5 among cluster colonies incubated for 48 hours were taken and suspended in reagents before use. The inoculation amount was 150 μl. As the suspension, components of kits provided by various manufacturers were used. When the strains are yet to be inoculated, the suspension is in a transparent liquid phase. Inoculated plates and strips were incubated at 37° C. for 48 hours, and then the incubation of up to 72 hours was examined. Wells were in a transparent liquid phase at the time of inoculating, but the colors of the wells changed to purple or red, and the color-changed wells were determined to be positive.

S. pneumoniae (CX-2) = format: cell-based, Streptococcus pneumoniae
Procedure: as §1

S. infantis (CX-4) = assay: Substance utilization by isolated strains (BioLOG GP2, API 50); format: cell-based, Streptococcus infantis
Procedure: as §1

| Molecule | substance utilization, S. mitis (CX-8) (S. mitis (CX-8)) | substance utilization, S. pneumoniae (CX-2) (S. pneumoniae (CX-2)) | substance utilization, S. infantis (CX-4) (S. infantis (CX-4)) |
| --- | --- | --- | --- |
| [Cl-].[Li+] [Lithium Chloride] | + |  |  |
| Tween 40 |  | + | + |
| O=C1O[C@H]([C@@H](O)CO)[C@@H](O)[C@@H]1O [L-Galactonic Acid Lactone] | + |  |  |
| D-Turanose |  | + |  |
| Dextrin | + | + | + |
| D-Salicin | + |  |  |
| OC[C@H]1O[C@H](OCC2O[C@@H](O)[C@H](O)[C@@H](O)[C@@H]2O)[C@H](O)[C@@H](O)[C@H]1O (stereo partly drawn) [D-Melibiose] |  | + |  |
| OC[C@H]1O[C@H](OC[C@H]2O[C@H](O[C@]3(CO)O[C@H](CO)[C@@H](O)[C@@H]3O)[C@H](O)[C@@H](O)[C@@H]2O)[C@H](O)[C@@H](O)[C@H]1O [D-Raffinose] |  | + |  |
| OC[C@H]1O[C@@H](O[C@H]2[C@H](O)[C@@H](O)[C@H](O)O[C@@H]2CO)[C@H](O)[C@@H](O)[C@@H]1O [D-Cellobiose] | + | + | + |
| Pectin | + | + | + |
| O=P(O)(O)OC[C@H]1OC(O)(CO)[C@@H](O)[C@@H]1O (stereo partly drawn) [D-Fructose-6-Po4] | + |  |  |
| O=[Te]([O-])[O-].[K+].[K+] [Potassium Tellurite] | + | + | + |
| CC(O)C(=O)[O-].[Na+] (stereo not shown) [1% Sodium Lactate, Sodium Lactate] | + | + | + |
| [Cl-].[Na+] [1% NaCl, NaCl] | + | + | + |
| OC[C@H]1O[C@H](O[C@H]2[C@H](O)[C@@H](O)[C@H](O)O[C@@H]2CO)[C@H](O)[C@@H](O)[C@@H]1O [D-maltose] | + | + | + |
| COc1cc(-c2ccc(-n3nc(-c4ccccc4)n[n+]3-c3ccccc3)c(OC)c2)ccc1-n1nc(-c2ccccc2)n[n+]1-c1ccccc1.[Cl-].[Cl-] [Tetrazolium Blue] | + |  | + |
| CO[C@H]1/C=C/O[C@@]2(C)Oc3c(C)c([O-])c4c(O)c(cc(O)c4c3C2=O)NC(=O)/C(C)=C\C=C\[C@H](C)[C@H](O)[C@@H](C)[C@@H](O)[C@@H](C)[C@H](OC(C)=O)[C@@H]1C.[Na+] [Rifamycin SV] | + |  | + |
| OC[C@H]1O[C@H](OC[C@H]2O[C@H](OC[C@H]3O[C@H](O[C@]4(CO)O[C@H](CO)[C@@H](O)[C@@H]4O)[C@H](O)[C@@H](O)[C@@H]3O)[C@H](O)[C@@H](O)[C@H]2O)[C@H](O)[C@@H](O)[C@H]1O [Stachyose] | + | + | + |

From US11752091B2, “Composition for strengthening skin barrier, moisturizing skin or anti-aging” (COSMAX, INC., priority 2020, dated 2023)
